“Also recorded” adds a separate entry of the source.
What was measured:
[1] = test system: C57BL/6N mouse; test: Hair growth promoting effects using a mouse (first test); format: in vivo; details: for hair growth levels: until day 3, compared across groups incl. untreated; for hair growth amounts compared to the control group: FIGS. 7 and 8 (day 10, day 12); for hair growth promoting effects with the naked eye compared to the untreated group: day 5 after sample treatment; for hair growth promoting effects compared to the untreated group: day 8 after sample treatment (FIG. 6B)
Procedure: (§1) ALA and ALA-peptide which were major test materials of the present invention were dissolved in pure water to a concentration of […] (100 ppm) to be used.
A 7-week-old C57BL/6N mouse (Jungang Lab. Animal Inc., KOR) was used for this study, and hair of the mouse's back was completely removed using a wax at the age of 49 days to 51 days at which the C57BL/6N mouse enters […] for the second time. In order to verify hair growth promoting effects of the test materials, it was treated once a day for 24 days. More particularly, ALA and the ALA-peptide were sprayed 3 times before LED radiation, and the LED treated groups were verified after being treated for 5 minutes.

[2] = test system: C57BL/6N mouse; test: Hair growth promoting effects using a mouse (second test); format: in vivo
Procedure: A 10-fold volume of primary distilled water was put into 100 g of Cimicifuga heracleifolia, Baikl skullcap, and Lance Asiabell dry matters, which were hot water extracted for 6 hours at 100° C. and were then filtered. The filtered extracts were pulverized through freeze-dried and then stored at 4° C. until used. The pulverized natural extracts were used in a mouse experiment at a concentration of 1 mg/ml.
as §1
A 7-week-old C57BL/6N mouse was used for this study, and hair of the mouse's back was completely removed using a wax at the age of 49 days to 51 days at which the C57BL/6N mouse enters […] for the second time. In order to verify hair growth promoting effects of the test materials, it was treated once a day for 24 days. More particularly, the ALA and ALA-peptide were sprayed 3 times before LED radiation, and the LED treated groups were verified after treated for 5 minutes.

Compound | hair loss phenomenon compared to other treated groups ([1]; LED-Blue radiation, day 30 of observation (FIG. 15)) | hair growth levels ([1]; LED-Blue radiation) | hair growth levels ([1]; LED-Red radiation) | hair growth amounts compared to the control group ([1]; LED-Blue radiation) | hair growth promoting effects with the naked eye compared to the untreated group ([1]; LED-Blue radiation) | hair growth promoting effects compared to the untreated group ([1]; LED-Blue radiation) | hair growth promoting effects through continuous treatments ([1]; LED-Red radiation compared to LED-Blue radiation, FIGS. 9 to 14 (day 14 to day 24)) | hair growth amounts compared to the control group ([1]; LED-Red radiation) | hair growth promoting effects with the naked eye compared to the untreated group ([1]; LED-Red radiation) | hair growth promoting effects compared to the untreated group ([1]; LED-Red radiation) | hair growth promoting effects compared to the untreated group (in words) ([2]; LED-Red radiation, day 9 after sample treatment) | hair growth amounts compared to the untreated group ([2]; LED-Red radiation, extracts 1 mg/ml) | hair growth levels compared to untreated group ([2]; without LED radiation, FIGS. 16 to 19 (day 0 to day 7))
Cl.NCC(=O)CCC(=O)O [ALA, 5-aminolevulinic acid, reference compound] | considerable hair loss phenomenon | no differences in hair growth levels | no differences in hair growth levels | – | – | – | – | – | – | – | – | – | –
5-Aminolevulinic Acid (ALA)-Peptide (GHK) [ALA-peptide] | – | – | – | significant hair growth promoting effects | distinct differences | about 7 fold | more superior hair growth promoting effects than the LED-Blue+ALA-peptide treated group | significant hair growth promoting effects; also recorded: most superior hair growth promoting effect | distinct differences | about 10 fold | significant hair growth promoting effects | increasing effects in the significant hair growth amounts | little differences in hair growth levels

From patent US9724416B2, “Composition for improving or promoting hair growth containing, as active ingredients, photosensitizer irradiated with light and peptide, and method using same” (GWANGJU INSTITUTE OF SCIENCE AND TECHNOLOGY, priority 2012, dated 2017)
